Source: article PMC3679074, “Ligand Binding and Signaling of Dendritic Cell Immunoreceptor (DCIR) Is Modulated by the Glycosylation of the Carbohydrate Recognition Domain” (PLoS ONE, 2013)
Numbering of substitutions follows the chain as printed.

What was measured:
[1] = target: T1, DCIR-Fc (Homo sapiens, UniProt Q9UMR7, N185Q); assay: ELISA, soluble Fc protein on coated neoglycoconjugate; format: binding; conditions: 50 µg/ml Fc protein, room temperature; multivalent PAA conjugate; mutant lacks CRD N-glycan
T1 construct: gene CLEC4A; extracellular domain fused at C terminus to human IgG1 Fc (tag); produced in CHO or CHO Lec8 cells, protein A purified; 'residues 208-689' [sic]
T1 sequence (Q9UMR7 70-230 N185Q): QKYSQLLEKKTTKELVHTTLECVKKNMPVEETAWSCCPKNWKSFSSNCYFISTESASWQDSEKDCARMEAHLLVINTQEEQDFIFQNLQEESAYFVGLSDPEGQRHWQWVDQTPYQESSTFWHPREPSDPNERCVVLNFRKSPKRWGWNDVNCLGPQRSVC

[2] = target: T2, DCIR-Fc (Homo sapiens, UniProt Q9UMR7); assay: ELISA, biotinylated neoglycoconjugate on immobilized Fc protein; format: binding
T2 construct: gene CLEC4A; extracellular domain fused at C terminus to human IgG1 Fc (tag); produced in CHO or CHO Lec8 cells, protein A purified; 'residues 208-689' [sic]
T2 sequence (Q9UMR7 70-230): T1 sequence (Q9UMR7 70-230 N185Q) with Q116N

SMILES	ELISA, soluble Fc protein on coated neoglycoconjugate [1]	ELISA, biotinylated neoglycoconjugate on immobilized Fc protein ([2]; pH 7.4, Ca2+/Mg2+, room temperature, labelled compound (multivalent biotinylated PAA conjugate), EGTA-sensitive)	ELISA, biotinylated neoglycoconjugate on immobilized Fc protein ([2]; labelled compound (multivalent biotinylated PAA conjugate, 5 µg/ml), EGTA control subtracted)
CC(=O)N[C@H]1C(O)O[C@H](CO)[C@@H](O[C@@H]2O[C@@H](C)[C@@H](O)[C@@H](O)[C@@H]2O)[C@@H]1O[C@@H]1O[C@H](CO)[C@H](O)[C@H](O)[C@H]1O[C@@H]1O[C@@H](C)[C@@H](O)[C@@H](O)[C@@H]1O (stereo partly drawn) [Lewis^b]	strongly interacted with immobilized Lewis^b and Man3	We observed CLR-specific binding of Man3 and Lewis^b to immobilized DCIR-Fc	–
CC(=O)N[C@H]1C(O)O[C@H](CO)[C@@H](O[C@@H]2O[C@@H](C)[C@@H](O)[C@@H](O)[C@@H]2O)[C@@H]1O[C@@H]1O[C@H](CO)[C@H](O)[C@H](OS(=O)(=O)O)[C@H]1O (stereo partly drawn) [sulfo-Lewis^a]	–	–	immobilized glycosylated DCIR-Fc could interact with sulfo-Lewis^a
